Source: patent publication US20150344427A1 (EPIZYME, INC., priority 2012, published 2015)

Experiments:
[1] = tested on: H3K27 trimethylation in WSU-DLCL2 cells; assay: WSU-DLCL2 Methylation Assay (H3K27me3 ELISA); format: cell-based; conditions: Homo sapiens, WSUDLCL2, 96 hours incubation, H3K27me3 normalised to total Histone H3
Excerpt: WSU-DLCL2 suspension cells were purchased from DSMZ (German Collection of Microorganisms and Cell Cultures, Braunschweig, Germany). RPMI/Glutamax Medium, Penicillin-Streptomycin, Heat Inactivated Fetal Bovine Serum, and D-PBS were purchased from Life Technologies, Grand Island, N.Y., USA. Extraction Buffer and Neutralization Buffer (5×) were purchased from Active Motif, Carlsbad, Calif., USA. Rabbit anti-Histone H3 antibody was purchased from Abcam, Cambridge, Mass., USA. Rabbit anti-H3K27me3 and HRP-conjugated anti-rabbit-IgG were purchased from Cell Signaling Technology, Danvers, Mass., USA. TMB “Super Sensitive” substrate was sourced from BioFX Laboratories, Owings Mills, Md., USA. IgG-free Bovine Serum Albumin was purchased from Jackson ImmunoResearch, West Grove, Pa., USA. PBS with Tween (10×PBST) was purchased from KPL, Gaithersburg, Md., USA. Sulfuric Acid was purchased from Ricca Chemical, Arlington, Tex., USA. Immulon ELISA plates were purchased from Thermo, Rochester, N.Y., USA. V-bottom cell culture plates were purchased from Corning Inc., Corning, N.Y., USA. V-bottom polypropylene plates were purchased from Greiner Bio-One, Monroe, N.C., USA.
(§1) WSU-DLCL2 suspension cells were maintained in growth medium (RPMI 1640 supplemented with 10% v/v heat inactivated fetal bovine serum and 100 units/mL penicillin-streptomycin) and cultured at 37° C. under 5% CO2 Under assay conditions, cells were incubated in Assay Medium (RPMI 1640 supplemented with 20% v/v heat inactivated fetal bovine serum and 100 units/mL penicillin-streptomycin) at 37° C. under 5% CO2 on a plate shaker.
WSU-DLCL2 cells were seeded in assay medium at a concentration of 50,000 cells per mL to a 96-well V-bottom cell culture plate with 200 μL per well. Compound (1 μL) from 96 well source plates was added directly to V-bottom cell plate. Plates were incubated on a titer-plate shaker at 37° C., 5% CO2 for 96 hours. After four days of incubation, plates were spun at 241×g for five minutes and medium was aspirated gently from each well of cell plate without disturbing cell pellet. Pellet was resuspended in 200 μL DPBS and plates were spun again at 241×g for five minutes. The supernatant was aspirated and cold (4° C.) Extraction buffer (100 μL) was added per well. Plates were incubated at 4° C. on orbital shaker for two hours. Plates were spun at 3427×g×10 minutes. Supernatant (80 μL per well) was transferred to its respective well in 96 well V-bottom polypropylene plate. Neutralization Buffer 5× (20 μL per well) was added to V-bottom polypropylene plate containing supernatant. V-bottom polypropylene plates containing crude histone preparation (CHP) were incubated on orbital shaker x five minutes. Crude Histone Preparations were added (2 μL per well) to each respective well into duplicate 96 well ELISA plates containing 100 μL Coating Buffer (1×PBS+BSA 0.05% w/v). Plates were sealed and incubated overnight at 4° C. The following day, plates were washed three times with 300 μL per well 1×PBST. Wells were blocked for two hours with 300 μL per well ELISA Diluent ((PBS (1×) BSA (2% w/v) and Tween20 (0.05% v/v)). Plates were washed three times with 1×PBST. For the Histone H3 detection plate, 100 μL per well were added of anti-Histone-H3 antibody (Abcam, ab1791) diluted 1:10,000 in ELISA Diluent. For H3K27 trimethylation detection plate, 100 μL per well were added of anti-H3K27me3 diluted 1:2000 in ELISA diluent. Plates were incubated for 90 minutes at room temperature. Plates were washed three times with 300 μL 1×PBST per well. For Histone H3 detection, 100 μL of HRP-conjugated anti-rabbit IgG antibody diluted to 1:6000 in ELISA diluent was added per well. For H3K27me3 detection, 100 μL of HRP conjugated anti-rabbit IgG antibody diluted to 1:4000 in ELISA diluent was added per well. Plates were incubated at room temperature for 90 minutes. Plates were washed four times with 1×PBST 300 μL per well. TMB substrate 100 μL was added per well. […]

WSU-DLCL2 cells = assay: Cell Proliferation Analysis, WSU-DLCL2; format: cell-based; conditions: Homo sapiens, WSUDLCL2, 144 h, 6 days, Cell Titer Glo
Excerpt: WSU-DLCL2 suspension cells were purchased from DSMZ (German Collection of Microorganisms and Cell Cultures, Braunschweig, Germany). RPMI/Glutamax Medium, Penicillin-Streptomycin, Heat Inactivated Fetal Bovine Serum were purchased from Life Technologies, Grand Island, N.Y., USA. V-bottom polypropylene 384-well plates were purchased from Greiner Bio-One, Monroe, N.C., USA. Cell culture 384-well white opaque plates were purchased from Perkin Elmer, Waltham, Mass., USA. Cell-Titer Glo® was purchased from Promega Corporation, Madison, Wis., USA. SpectraMax M5 plate reader was purchased from Molecular Devices LLC, Sunnyvale, Calif., USA.
as §1, with “and” for “and 100 units/mL penicillin-streptomycin) and”, “CO2.” for “CO2”, “CO2.” for “CO2 on a plate shaker.”
For the assessment of the effect of compounds on the proliferation of the WSU-DLCL2 cell line, exponentially growing cells were plated in 384-well white opaque plates at a density of 1250 cell/ml in a final volume of 50 μl of assay medium. A compound source plate was prepared by performing triplicate nine-point 3-fold serial dilutions in DMSO, beginning at 10 mM (final top concentration of compound in the assay was 20 μM and the DMSO was 0.2%). A 100 nL aliquot from the compound stock plate was added to its respective well in the cell plate. […] After addition of compounds, assay plates were incubated for 6 days at 37° C., 5% CO2, relative humidity >90% for 6 days. Cell viability was measured by quantization of ATP present in the cell cultures, adding 35 μl of Cell Titer Glo® reagent to the cell plates. Luminescence was read in the SpectraMax M5. The concentration inhibiting cell viability by 50% was determined using a 4-parametric fit of the normalized dose response curves.

Row | SMILES | IC50 [1] | IC50 (WSU-DLCL2 cells)
1 | CCN(c1cc(Cl)cc(C(=O)NCc2c(C)[nH]c(C)cc2=O)c1C)[C@H]1CC[C@H](N(C)C)CC1 [Compound 1, 5-chloro-N-((2,6-dimethyl-4-oxo-1,4-dihydropyridin-3-yl)methyl)-3-(((trans)-4-(dimethylamino)cyclohexyl)(ethyl)amino)-2-methylbenzamide] | 8.44 µM | 17.1 µM
2 | CCN(c1cc(Cl)cc(C(=O)NCc2c(C)n(C)c(C)cc2=O)c1C)[C@H]1CC[C@H](N(C)C)CC1 [Compound 86] | > 50 µM | > 20 µM
3 | CCn1c(C)cc(=O)c(CNC(=O)c2cc(Cl)cc(N(CC)[C@H]3CC[C@H](N(C)C)CC3)c2C)c1C [Compound 87] | > 50 µM | 3 µM
4 | CCN(c1cc(-c2ccc(COC)nc2)cc(C(=O)NCc2c(Cl)[nH]c(C)cc2=O)c1C)[C@H]1CC[C@H](N(C)C)CC1 [Compound 88] | 2.4 µM | 5.1 µM
5 | CCN(c1cc(-c2cnn(C)c2)cc(C(=O)NCc2c(Cl)[nH]c(C)cc2=O)c1C)[C@H]1CC[C@H](N(C)C)CC1 [Compound 89] | 5.9 µM | 11.5 µM
6 | CCN(c1cc(-c2ccc(C)nc2)cc(C(=O)NCc2c(Cl)[nH]c(C)cc2=O)c1C)[C@H]1CC[C@H](N(C)C)CC1 [Compound 90] | 2.7 µM | 5.3 µM
7 | CCN(c1cc(-c2cnc(C)cn2)cc(C(=O)NCc2c(Cl)[nH]c(C)cc2=O)c1C)[C@H]1CC[C@H](N(C)C)CC1 [Compound 91] | 3.3 µM | 5.4 µM
8 | CCN(c1cc(-c2ccc(OCCOC)cc2)cc(C(=O)NCc2c(Cl)[nH]c(C)cc2=O)c1C)[C@H]1CC[C@H](N(C)C)CC1 [Compound 92] | 3.9 µM | 4.4 µM
9 | CCN(c1cc(-c2ccc(OCCOC)cc2)cc(C(=O)NCc2c(C)[nH]c(C)cc2=O)c1C)[C@H]1CC[C@H](N(C)C)CC1 [Compound 93] | 1.7 µM | 1.2 µM
10 | CCCN(c1cc(-c2ccc(OCCOC)cc2)cc(C(=O)NCc2c(C)[nH]c(C)cc2=O)c1C)[C@H]1CC[C@H](N(C)C)CC1 [Compound 94] | 5.1 µM | 2.9 µM
11 | CCN(c1cc(-c2ccc(OCCOC)cc2)cc(C(=O)NCc2c(C)[nH]c(C)cc2=O)c1C)[C@H]1CC[C@H](N(C)CCOC)CC1 [Compound 100] | 7.5 µM | 4.2 µM
